Tests used:
[1] = DPPH Spectrophotometer Assay (free radical scavenging); assay type: biochemical; conditions: for DPPH EC50: Table 5; for antioxidant properties in words: comment on DPPH and NORA results of Table 5; for antioxidant capacity in words: in both DPPH and nitric oxide free radical systems, Table 3
Description: The free radical 2,2-Diphenyl-1-picrylhydrazyl (DPPH) may be used to determine free radical scavenging ability of test materials such as a scavenging agent of the present invention. […] Measurements are taken after the reaction between the test scavenging agent and DPPH reaches steady state. DPPH is a free radical that changes color when it reacts with an antioxidant. The color change in DPPH is an indication of antioxidant power. […] Thus, DPPH serves as a model for free radical oxidation. Provided below are details for conducting a DPPH Spectrophotometer Assay:
Weigh 100 mg sample into 15 ml conical centrifuge tube.
Add 1 ml DMSO. Vortex to mix.
Dilute samples in MeOH according to Table 2.
Dilute 1 mM DPPH (prepared in 80% MeOH) to 100 uM in 80% MeOH.
In 3 ml cuvette, add 200 uL sample dilution. Add 1.8 ml of 100 uM DPPH.
Mix well. Incubate 15 min at Room Temp. Read at […].
If cuvette appears cloudy due to precipitation of sample, prepare sample dilutions (Table 2) in DMF (or suitable solvent) instead of DMSO. Also prepare DPPH working solution (100 uM) in DMF (or suitable solvent) instead of MeOH.

[2] = Nitric Oxide Radical Absorbance (NORA) assay; assay type: biochemical; conditions: for inhibitory response for nitric oxide in words: comment on Table 3
Description: The NORA assay determines the ability of a compound to quench nitric oxide free radicals (NO*) produced by a NO* generator. In the assay, a target compound is oxidized using the nitric oxide generator NOR-3, resulting in increased fluorescence. […] Provided below are details for conducting a Nitric Oxide Radical Absorbance (NORA) Assay:
DHR123: 1.0 mg/3 ml MeOH=1 mM stock (Freeze and protect from light) 7.5 uL stock/10 ml Buffer=0.75 uM working solution.
NOR-3: 1.0 mg NOR-3/100 uL DMSO.
Oil: Weigh 100 mg into 15 ml polypropylene centrifuge tube. Add 5 ml
Prepare sample dilution in a 96-well polypropylene storage plate (2 mL/well), the dilution plate: • A. 60 uL Stock+1.94 ml DMF=200 ug/ml • B. 500 uL 200 ug/ml+500 ul DMF=100 ug/ml • C.
Positive Control: (1 uM Uric Acid)
Add 100 uL of each sample/PC/Blank in duplicate. Row H will contain PC only.
Add 70 uL Phosphate Buffer to all wells.
Add 30 uL NOR-3 to all wells.
Incubate plate 15 min at room temperature.

[3] = amount of test material required to inhibit nitric oxide oxidation by 50%, Table 3
[4] = Antioxidant Power equals 1/EC50, fragrant oils, Table 1

DPPH EC50 [1] [g/g DPPH]	NORA EC50 ([2]; Table 5) [µg/mL]	NORA EC50 [2, 3] [µg/mL]	SMILES	other results
>2.82	>10.0	–	OCCCc1ccccc1 [3-Phenyl-1-propanol]	–
0.15	>10.0	–	Cc1cc(C(C)(C)C)c(O)c(C(C)(C)C)c1 [BHT, butylated hydroxytoluene]	–
>2.82	>10.0	–	CC12CCC(CC1=O)C2(C)C (stereo not drawn) [Camphor]	–
>2.82	11.8	–	OCC=Cc1ccccc1 [Cinnamyl alcohol]	–
>2.82	>10.0	–	O=c1ccc2ccccc2o1 [Coumarin]	–
>2.82	>10.0	–	CCOC(=O)c1ccc(O)cc1 [Ethyl paraben]	–
0.19	0.3	–	COc1cc(/C=C/C(=O)O)ccc1O [Ferulic acid]	antioxidant properties in words [1]: excellent antioxidant properties
–	–	150.33	CC(C)CC1CC(C)(O)CCO1 (stereo not drawn) [Florosa (Q), Florosa]	–
–	–	150.44	CCCCCC1COCCC1OC(C)=O (stereo not drawn) [Jasmopyrane (Q), Jasmopyrane]	inhibitory response for nitric oxide in words [2]: performed more poorly than did lilial
–	–	23.70	CC(C=O)Cc1ccc(C(C)(C)C)cc1 (stereo not drawn) [Lilial (G), Lilial]	inhibitory response for nitric oxide in words [2]: better than expected inhibitory response
>2.82	>10.0	–	C=C(C)[C@H]1CC=C(C)CC1 [Limonene]	–
2.82	10.0	–	Cc1occc(=O)c1O [Maltol]	antioxidant properties in words [1]: performed marginally well
>2.82	>10.0	–	CC1CCC(C(C)C)C(O)C1 (stereo not drawn) [Menthol]	–
–	–	274.16	Cc1ccc(C(C)C)cc1 [Paracymene]	–
–	–	10.14	CC(=O)CCc1ccc(O)cc1 [Raspberry Ketone]	antioxidant capacity in words [1]: greatest antioxidant capacity
0.74	>10.0	–	Oc1cccc(O)c1 [Resorcinol]	antioxidant properties in words [1]: good responses
0.65	>10.0	–	Cc1ccc(C(C)C)c(O)c1 [Thymol]	antioxidant properties in words [1]: good responses
–	–	0.046	Cc1c(C)c2c(c(C)c1O)CCC(C)(C(=O)O)O2 (stereo not drawn) [Trolox, reference compound]	–
–	–	0.84	O=c1[nH]c(=O)c2[nH]c(=O)[nH]c2[nH]1 [Uric Acid, reference compound]	–
–	–	8.95	COc1cc(C=O)ccc1O [Vanillin]	DPPH *AO Power [1, 4]: 0.0112 units/gram; antioxidant capacity in words [1]: greatest antioxidant capacity; NORA AO Power [2, 4]: 93 units/gram
0.16	4.1	–	COc1cc(CO)ccc1O [Vanillyl alcohol]	antioxidant properties in words [1]: excellent antioxidant properties

SMILES	DPPH EC50 [1] [g/g DPPH]	NORA EC50 ([2]; Table 5) [µg/mL]	NORA EC50 [2, 3] [µg/mL]	other results
OCCOc1ccccc1 [2-Phenoxyethanol]	>2.82	>10.0	–	–
CCCCCCCCC(=O)OCC [Ethyl monanoate]	>2.82	>10.0	–	–
C=CCc1ccc(O)c(OC)c1 [Eugenol]	0.12	0.8	–	antioxidant properties in words [1]: excellent antioxidant properties
COc1cccc(CO)c1 [m-Anisyl alcohol]	>2.82	>10.0	–	–
